Test results: patent US12012401B2, “Process for preparing N-(5-(3-(7-(3-fluorophenyl)-3H-imidazo[4,5-c]pyridin-2-yl)-1H-indazol-5-yl)pyridin-3-yl)-3-methylbutanamide” (BioSplice Therapeutics, Inc., priority 2016, dated 2024)

Assays:
Assay type in all cases: physicochemical
[1] = Dynamic vapor sorption (DVS) scan; settings: for water absorption (DVS scan): at 90% RH
Text: The purity of the Form 13 sample was 98.8%; the KF of an undried Form 13 sample was 35.7%.

[2] = Form conversion on exposure to relative humidity / air (XRD); settings: for XRD after exposure to air overnight: exposed to air overnight
Procedure: The hydrate lost its water below 30% RH.
Solvates 1 and 2 solids were exposed to air overnight, and then analyzed by XRD. After the analysis, the solids were dried at 50° C. under vacuum, and then analyzed by XRD again.

[3] = Form conversion on drying (XRD); settings: for XRD after drying at 50° C. under vacuum: after air exposure overnight, dried at 50° C. under vacuum
Procedure: The Form 1 solid was dried at 75° C. under vacuum overnight, and XRD, DSC, and TGA scans were performed. […] However, the DSC scans indicated the absence of endotherm. The loss of the early peak on the DSC scan had no effect on the XRD trace, showing that the endotherm between 50-100° C. on DSC scan was due to the free solvent. The purity of the Form 13 sample was 98.8%; the KF of an undried Form 13 sample was 35.7%. […] Solvates 1 and 2 solids were exposed to air overnight, and then analyzed by XRD. After the analysis, the solids were dried at 50° C. under vacuum, and then analyzed by XRD again.

[4] = Heating in DSC chamber, then XRD scan (form conversion)
Procedure: The Form 1 solid was heated in a DSC chamber to 305° C. (past the endotherm/exotherm around 280° C.), and then scanned by XRD. […] Thus, the endotherm/exotherm around 280° C. might be due to melting/crystallization events.
The Form 2 solid was heated in a DSC machine to 90° C. (past the endotherm between 50-100° C.); to 270° C. (past the endotherm/exotherm around 240° C.); and finally to 330° C. (past the exotherm […]). The residual solid was analyzed by XRD. […] The endotherm between 50-100° C. might be free solvent or hydrate. […] Thus, the exotherm around 290° C. was a re-crystallization event. According to an XRD and DSC overlay, the behavior of Form 2* was similar to Form 2.
Form 13 solid was heated in a DSC chamber to 170° C. (past the endotherm between 50-100° C.), and then scanned by XRD. […] It can be concluded that the endotherm between 50-100° C. is due to bonded water.
Form 13 solid was heated in a DSC chamber to 330° C. (past the endotherm/exotherm around 300° C.), and then scanned by XRD. […] It can be concluded that the endotherm/exotherm is due to melting/crystallization events.

[5] = Competitive reslurry experiments between polymorph forms (thermodynamic stability); settings: 3-5 days
Procedure: In order to find out the thermodynamic stability between the different forms, several competitive reslurry experiments were carried out. Form 1, Form 2, Form 2*, Form 3, Form 4, Form 4*, Form 4**, Form 5, Form 7, Form 8, Form 9, Form 10, Form 11, Form 11*, and Form 13 (10 mg for each) were mixed and slurried in 2 mL of solvent at both RT and 50° C. The solids were slurried for 3-5 days and then analyzed by XRD.

[6] = Competitive reslurry of Form 1, Form 9 and Form 13 (stability of Form 13 vs Form 9); settings: toluene, IPAc, n-butyl acetate; 3 days at RT and 50° C.
Procedure: In order to find out the thermodynamic stability between Form 13 and Form 9, several competitive reslurry experiments were carried out. 15 mg of Form 1, Form 9 and Form 13 solids were mixed in 1 mL of toluene, IPAc, and n-butyl acetate, and slurried for 3 days at RT and 50° C.
The residual solid was analyzed by XRD.

[7] = Reslurry experiments in various solvents (polymorph screen)
Procedure: Reslurry experiments in various solvents were performed. Approximately 30-80 mg of the starting solid (a non-stoichiometric hydrate of Form 1 having between 1% and about 20% by weight water) was slurried in 39 different solvents (pure and binary solvents; the ratio of organic solvent/water (V/V) was 95%/5%) at RT and 50° C. for 5 days. Three solvates, one non-stoichiometric hydrate, and eleven non-solvated forms were identified. […] XRD of both wet and dry samples were scanned (FIG. 12A (dry sample)).

[8] = Acetontrile/water (5% water), RT
[9] = n-Butyl acetate/water (5% water), RT

CC(C)CC(=O)Nc1cncc(-c2ccc3[nH]nc(-c4nc5c(-c6cccc(F)c6)cncc5[nH]4)c3c2)c1 [Form 1, N-(5-(3-(7-(3-fluorophenyl)-3H-imidazo[4,5-c]pyridin-2-yl)-1H-indazol-5-yl)pyridin-3-yl)-3-methylbutanamide]
water absorption (DVS scan) [1]: 17%
form change when exposed to air ([2]; exposed to air): converted to a non-stoichiometric hydrate of Form 1
change of XRD scan after drying ([3]; dried at 75° C. under vacuum overnight): no change
form after heating (XRD) ([4]; heated in a DSC chamber to 305° C.): converted to Form 9

CC(C)CC(=O)Nc1cncc(-c2ccc3[nH]nc(-c4nc5c(-c6cccc(F)c6)cncc5[nH]4)c3c2)c1 [Form 2, N-(5-(3-(7-(3-fluorophenyl)-3H-imidazo[4,5-c]pyridin-2-yl)-1H-indazol-5-yl)pyridin-3-yl)-3-methylbutanamide]
form after heating (XRD) ([4]; heated in a DSC machine to 90° C.): did not change
form after heating (XRD) ([4]; heated in a DSC machine to 270° C.): converted to low crystalline solids
form after heating (XRD) ([4]; heated to 330° C.): converted to Form 9
thermodynamic stability in competitive reslurry ([5]; MeOH, EtOH, and acetone system at both RT and 50° C.): most stable form

CC(C)CC(=O)Nc1cncc(-c2ccc3[nH]nc(-c4nc5c(-c6cccc(F)c6)cncc5[nH]4)c3c2)c1 [Form 4, N-(5-(3-(7-(3-fluorophenyl)-3H-imidazo[4,5-c]pyridin-2-yl)-1H-indazol-5-yl)pyridin-3-yl)-3-methylbutanamide]
thermodynamic stability in competitive reslurry ([5]; EA at RT and 50° C.): most stable

CC(C)CC(=O)Nc1cncc(-c2ccc3[nH]nc(-c4nc5c(-c6cccc(F)c6)cncc5[nH]4)c3c2)c1 [Form 9, N-(5-(3-(7-(3-fluorophenyl)-3H-imidazo[4,5-c]pyridin-2-yl)-1H-indazol-5-yl)pyridin-3-yl)-3-methylbutanamide]
form before and after the DVS scan ([1]; DVS scan): did not change its form
water absorption (DVS scan) [1]: 0.8%
thermodynamic stability between Form 13 and Form 9 [6]: difficult to tell which one was more stable

CC(C)CC(=O)Nc1cncc(-c2ccc3[nH]nc(-c4nc5c(-c6cccc(F)c6)cncc5[nH]4)c3c2)c1 [Form 12, N-(5-(3-(7-(3-fluorophenyl)-3H-imidazo[4,5-c]pyridin-2-yl)-1H-indazol-5-yl)pyridin-3-yl)-3-methylbutanamide]
Form; Dry [7, 8]: Form 1
Form; Wet [7, 8]: Form 12
Form; Dry ([7]; EA/water (5% water), RT): Form 1
Form; Wet ([7]; EA/water (5% water), RT): Form 12
Form; Dry ([7]; Heptane/water (5% water), RT): Form 12
Form; Wet ([7]; Heptane/water (5% water), RT): Form 13
Form; Dry ([7]; IPAc/water (5% water), RT): Form 1
Form; Wet ([7]; IPAc/water (5% water), RT): Form 12
Form; Dry ([7]; MA/water (5% water), 50° C.): Form 4
Form; Wet ([7]; MA/water (5% water), 50° C.): Form 12
Form; Dry ([7]; MIBK/water (5% water), RT): Form 1
Form; Wet ([7]; MIBK/water (5% water), RT): Form 12
Form; Dry ([7]; MeOH/water (5% water), RT): Form 1
Form; Wet ([7]; MeOH/water (5% water), RT): Form 12
Form; Dry ([7]; MtBE/water (5% water), RT): Form 1
Form; Wet ([7]; MtBE/water (5% water), RT): Form 12
Form; Dry [7, 9]: Form 12
Form; Wet [7, 9]: Form 13

CC(C)CC(=O)Nc1cncc(-c2ccc3[nH]nc(-c4nc5c(-c6cccc(F)c6)cncc5[nH]4)c3c2)c1 [Solvate 1, N-(5-(3-(7-(3-fluorophenyl)-3H-imidazo[4,5-c]pyridin-2-yl)-1H-indazol-5-yl)pyridin-3-yl)-3-methylbutanamide]
XRD after exposure to air overnight [2]: converted to low crystallinity
XRD after drying at 50° C. under vacuum [3]: still a low crystallinity solid

CC(C)CC(=O)Nc1cncc(-c2ccc3[nH]nc(-c4nc5c(-c6cccc(F)c6)cncc5[nH]4)c3c2)c1 [Solvate 2, N-(5-(3-(7-(3-fluorophenyl)-3H-imidazo[4,5-c]pyridin-2-yl)-1H-indazol-5-yl)pyridin-3-yl)-3-methylbutanamide]
XRD after exposure to air overnight [2]: changed a little
XRD after drying at 50° C. under vacuum [3]: remained the same

CC(C)CC(=O)Nc1cncc(-c2ccc3[nH]nc(-c4nc5c(-c6cccc(F)c6)cncc5[nH]4)c3c2)c1 [non-stoichiometric hydrate of Form 1, N-(5-(3-(7-(3-fluorophenyl)-3H-imidazo[4,5-c]pyridin-2-yl)-1H-indazol-5-yl)pyridin-3-yl)-3-methylbutanamide]
RH below which the hydrate lost its water ([2]; RH): below 30 % RH
